Experimental data as given in patent US8293753B2, “Substituted 2-carboxamide cycloamino ureas” (Novartis AG, priority 2009, dated 2012).

How the values were obtained:
Assay type in all cases: biochemical
PI3Kα = biological target: T1, PI3Kα (Homo sapiens, UniProt P42336); assay: PI3K KinaseGlo assay, PI3Kalpha; conditions: 1 μM ATP, 10 nM enzyme, 30 mins
T1 construct: His (C); made in house; host or cells: baculovirus / Tn5 insect cells

PI3Kδ = biological target: T2, PI3Kδ (Homo sapiens, UniProt O00329); assay: PI3K KinaseGlo assay, PI3Kdelta; conditions: for IC50: KinaseGlo, 1 μM ATP, 10 nM enzyme, 30 mins; for PI3Kdelta (selectivity): selectivity factor: PI3Kdelta IC50 divided by PI3Kalpha IC50
T2 construct: p85iSH2(461-568)-GGGGGG-p110δ(2-1044)-His; His (C); made in house; host or cells: baculovirus / Tn5 insect cells
T2 sequence (O00329 with tags, fused parts or gaps): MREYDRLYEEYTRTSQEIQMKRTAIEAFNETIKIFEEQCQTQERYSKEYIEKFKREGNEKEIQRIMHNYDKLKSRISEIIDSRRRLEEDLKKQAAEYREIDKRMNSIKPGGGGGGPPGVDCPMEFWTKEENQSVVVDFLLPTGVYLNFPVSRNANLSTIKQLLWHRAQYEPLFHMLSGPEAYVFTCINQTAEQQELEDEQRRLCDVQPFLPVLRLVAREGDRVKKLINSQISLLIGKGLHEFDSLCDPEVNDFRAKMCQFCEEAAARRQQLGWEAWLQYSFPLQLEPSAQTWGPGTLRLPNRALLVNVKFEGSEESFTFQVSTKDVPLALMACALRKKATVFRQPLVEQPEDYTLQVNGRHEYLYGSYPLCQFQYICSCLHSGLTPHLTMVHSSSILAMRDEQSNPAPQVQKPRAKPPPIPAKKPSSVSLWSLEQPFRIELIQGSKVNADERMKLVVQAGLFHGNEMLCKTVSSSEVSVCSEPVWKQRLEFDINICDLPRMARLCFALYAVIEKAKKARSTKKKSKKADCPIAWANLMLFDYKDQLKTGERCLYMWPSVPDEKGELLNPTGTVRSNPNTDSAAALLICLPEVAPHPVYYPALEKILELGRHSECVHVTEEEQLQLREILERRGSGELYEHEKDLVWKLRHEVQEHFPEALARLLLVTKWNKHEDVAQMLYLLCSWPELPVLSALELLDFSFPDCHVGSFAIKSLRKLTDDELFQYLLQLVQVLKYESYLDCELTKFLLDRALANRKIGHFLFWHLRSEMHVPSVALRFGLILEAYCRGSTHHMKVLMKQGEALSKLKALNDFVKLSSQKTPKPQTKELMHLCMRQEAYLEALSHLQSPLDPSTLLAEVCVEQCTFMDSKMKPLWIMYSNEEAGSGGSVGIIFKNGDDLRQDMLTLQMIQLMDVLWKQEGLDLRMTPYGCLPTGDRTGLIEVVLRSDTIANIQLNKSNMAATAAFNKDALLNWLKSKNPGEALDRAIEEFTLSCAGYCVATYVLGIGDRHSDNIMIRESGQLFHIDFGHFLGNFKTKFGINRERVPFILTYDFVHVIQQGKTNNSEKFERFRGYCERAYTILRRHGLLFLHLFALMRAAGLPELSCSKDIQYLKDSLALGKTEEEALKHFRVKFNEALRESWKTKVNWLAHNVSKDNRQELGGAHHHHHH

PI3Kβ = biological target: T3, PI3Kβ (Homo sapiens, UniProt P42338); assay: PI3K KinaseGlo assay, PI3Kbeta; conditions: for IC50: KinaseGlo, 1 μM ATP, 25 nM enzyme, 30 mins; for PI3Kbeta (selectivity): selectivity factor: PI3Kbeta IC50 divided by PI3Kalpha IC50
T3 construct: His (C); made in house; host or cells: baculovirus / Tn5 insect cells
T3 sequence (P42338 with tags, fused parts or gaps): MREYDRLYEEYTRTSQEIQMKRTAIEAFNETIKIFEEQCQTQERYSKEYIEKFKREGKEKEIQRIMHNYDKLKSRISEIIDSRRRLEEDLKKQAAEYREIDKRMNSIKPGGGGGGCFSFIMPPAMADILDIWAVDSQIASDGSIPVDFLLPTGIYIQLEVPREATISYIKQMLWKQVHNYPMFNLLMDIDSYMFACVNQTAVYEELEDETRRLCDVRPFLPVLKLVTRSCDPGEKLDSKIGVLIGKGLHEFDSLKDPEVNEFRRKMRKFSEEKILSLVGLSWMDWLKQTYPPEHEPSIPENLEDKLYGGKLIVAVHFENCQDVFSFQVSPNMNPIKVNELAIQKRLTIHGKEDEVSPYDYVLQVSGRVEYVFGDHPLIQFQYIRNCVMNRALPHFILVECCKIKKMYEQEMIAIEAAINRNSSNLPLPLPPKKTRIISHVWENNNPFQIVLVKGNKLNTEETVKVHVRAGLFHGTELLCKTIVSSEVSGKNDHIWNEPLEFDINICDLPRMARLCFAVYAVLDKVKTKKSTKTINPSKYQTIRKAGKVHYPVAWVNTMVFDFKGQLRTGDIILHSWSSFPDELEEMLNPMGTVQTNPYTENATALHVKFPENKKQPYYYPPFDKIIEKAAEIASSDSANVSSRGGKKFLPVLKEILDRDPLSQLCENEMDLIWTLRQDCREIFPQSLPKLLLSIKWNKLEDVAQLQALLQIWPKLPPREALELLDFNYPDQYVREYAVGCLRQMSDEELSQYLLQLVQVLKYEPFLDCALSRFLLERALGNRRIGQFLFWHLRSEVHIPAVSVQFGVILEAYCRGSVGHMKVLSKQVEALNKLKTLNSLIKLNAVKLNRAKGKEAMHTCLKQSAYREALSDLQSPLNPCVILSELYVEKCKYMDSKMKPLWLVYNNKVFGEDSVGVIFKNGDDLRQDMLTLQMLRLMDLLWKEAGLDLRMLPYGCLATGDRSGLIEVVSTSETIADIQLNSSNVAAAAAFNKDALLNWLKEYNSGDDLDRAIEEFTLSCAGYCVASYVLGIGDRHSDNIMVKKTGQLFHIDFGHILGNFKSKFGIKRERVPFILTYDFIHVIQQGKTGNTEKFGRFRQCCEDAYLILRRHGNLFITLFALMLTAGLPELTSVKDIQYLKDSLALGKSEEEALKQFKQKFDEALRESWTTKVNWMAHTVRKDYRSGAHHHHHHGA

PI3Kγ = biological target: T4, PI3Kγ (Homo sapiens, UniProt P48736, Q459R); assay: PI3K KinaseGlo assay, PI3Kgamma; conditions: for IC50: KinaseGlo, 1 μM ATP, 150 nM enzyme, 90 mins; for PI3Kgamma (selectivity): selectivity factor: PI3Kgamma IC50 divided by PI3Kalpha IC50
T4 construct: His (C); made in house; host or cells: Tn5 insect cells; construct obtained from Roger Williams lab (MRC LMB)
T4 sequence (P48736 with tags, fused parts or gaps Q459R): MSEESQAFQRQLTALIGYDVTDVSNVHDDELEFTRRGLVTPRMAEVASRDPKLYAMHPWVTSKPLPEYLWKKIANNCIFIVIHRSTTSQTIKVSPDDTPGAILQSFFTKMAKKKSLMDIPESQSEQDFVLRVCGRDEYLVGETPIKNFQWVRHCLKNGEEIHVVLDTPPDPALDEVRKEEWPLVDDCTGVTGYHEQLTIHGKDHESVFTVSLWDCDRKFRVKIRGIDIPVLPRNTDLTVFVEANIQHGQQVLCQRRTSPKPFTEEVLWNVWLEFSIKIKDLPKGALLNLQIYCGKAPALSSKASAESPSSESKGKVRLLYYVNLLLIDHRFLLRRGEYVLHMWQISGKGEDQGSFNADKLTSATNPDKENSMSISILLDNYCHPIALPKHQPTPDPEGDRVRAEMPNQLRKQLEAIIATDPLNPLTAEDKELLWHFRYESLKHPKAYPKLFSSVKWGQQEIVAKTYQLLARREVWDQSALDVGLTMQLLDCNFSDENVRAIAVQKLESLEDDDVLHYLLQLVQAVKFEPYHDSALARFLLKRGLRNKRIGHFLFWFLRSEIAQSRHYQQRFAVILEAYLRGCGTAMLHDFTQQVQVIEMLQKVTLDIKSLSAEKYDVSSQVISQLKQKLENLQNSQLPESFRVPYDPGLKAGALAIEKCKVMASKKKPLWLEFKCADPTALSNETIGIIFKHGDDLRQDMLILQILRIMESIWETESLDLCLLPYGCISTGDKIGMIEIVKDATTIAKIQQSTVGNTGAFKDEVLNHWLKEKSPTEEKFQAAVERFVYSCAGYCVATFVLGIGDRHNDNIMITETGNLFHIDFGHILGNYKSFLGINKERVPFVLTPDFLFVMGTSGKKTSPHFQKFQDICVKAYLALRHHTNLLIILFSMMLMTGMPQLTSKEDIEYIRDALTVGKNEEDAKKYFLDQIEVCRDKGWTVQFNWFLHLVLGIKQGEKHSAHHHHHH
Description: PI3K KinaseGlo assay: […] of compound dilutions were dispensed onto black 384-well low volume Non Binding Styrene (NBS) plates (Costar Cat. No. NBS#3676). L-a-phosphatidylinositol (PI), provided as 10 mg/ml solution in methanol, was transferred into a glass tube and dried under nitrogen beam. It was then resuspended in 3% OctylGlucoside (OG) by vortexing and stored at 4° C. The KinaseGlo Luminescent Kinase Assay (Promega, Madison/WI, USA) is a homogeneous HTS method of measuring kinase activity by quantifying the amount of ATP remaining in solution following a kinase reaction.
5 μL of a mix of PI/OG with the PI3K subtype were added (Table 1). Kinase reactions were started by addition of 5 μl of ATP-mix containing in a final volume 10 μL 10 mM TRIS-HCl pH 7.5, 3 mM MgCl2, 50 mM NaCl, 0.05% CHAPS, 1 mM DTT and 1 μM ATP, and occurred at room temperature. Reactions were stopped with 10 μl of KinaseGlo and plates were read 10 mins later in a Synergy2 reader using an integration time of 0.1 seconds per well. […] The standard was used as a reference compound and included in all assay plates in the form of 16 dilution points in duplicate.
The PI3Kα, PI3Kβ and PI3Kδ constructs are fusion of p85α iSH2 domain and the respective p110 isoforms. The p85α fragment and p110 isoform genes were generated by PCR from first strand cDNA generated by RT-PCR from commercial RNA from placenta, testis and brain as described below. The PI3Kγ construct was obtained from Roger Williams lab, MRC Laboratory of Molecular Biology, Cambridge, UK (November, 2003) and is described (Pacold, Michael E.; Suire, Sabine; Perisic, Olga; Lara-Gonzalez, Samuel; Davis, Colin T.; Walker, Edward H.; Hawkins, Phillip T.; Stephens, Len; Eccleston, John F.; Williams, Roger L. Crystal structure and functional analysis of Ras binding to its effector phosphoinositide 3-kinase gamma. Cell (2000), 103(6), 931-943).
Construct obtained from Roger Williams lab, MRC Laboratory of Molecular Biology, Cambridge, UK (November, 2003). Description of the construct in (Pacold, Michael E.; Suire, Sabine; Perisic, Olga; Lara-Gonzalez, Samuel; Davis, Colin T.; Walker, Edward H.; Hawkins, Phillip T.; Stephens, Len; Eccleston, John F.; Williams, Roger L. Crystal structure and functional analysis of Ras binding to its effector phosphoinositide 3-kinase gamma. Cell (2000), 103(6), 931-943). Constructs lacking the N-terminal 144 aa.

T1 sequence (P42336 with tags, fused parts or gaps): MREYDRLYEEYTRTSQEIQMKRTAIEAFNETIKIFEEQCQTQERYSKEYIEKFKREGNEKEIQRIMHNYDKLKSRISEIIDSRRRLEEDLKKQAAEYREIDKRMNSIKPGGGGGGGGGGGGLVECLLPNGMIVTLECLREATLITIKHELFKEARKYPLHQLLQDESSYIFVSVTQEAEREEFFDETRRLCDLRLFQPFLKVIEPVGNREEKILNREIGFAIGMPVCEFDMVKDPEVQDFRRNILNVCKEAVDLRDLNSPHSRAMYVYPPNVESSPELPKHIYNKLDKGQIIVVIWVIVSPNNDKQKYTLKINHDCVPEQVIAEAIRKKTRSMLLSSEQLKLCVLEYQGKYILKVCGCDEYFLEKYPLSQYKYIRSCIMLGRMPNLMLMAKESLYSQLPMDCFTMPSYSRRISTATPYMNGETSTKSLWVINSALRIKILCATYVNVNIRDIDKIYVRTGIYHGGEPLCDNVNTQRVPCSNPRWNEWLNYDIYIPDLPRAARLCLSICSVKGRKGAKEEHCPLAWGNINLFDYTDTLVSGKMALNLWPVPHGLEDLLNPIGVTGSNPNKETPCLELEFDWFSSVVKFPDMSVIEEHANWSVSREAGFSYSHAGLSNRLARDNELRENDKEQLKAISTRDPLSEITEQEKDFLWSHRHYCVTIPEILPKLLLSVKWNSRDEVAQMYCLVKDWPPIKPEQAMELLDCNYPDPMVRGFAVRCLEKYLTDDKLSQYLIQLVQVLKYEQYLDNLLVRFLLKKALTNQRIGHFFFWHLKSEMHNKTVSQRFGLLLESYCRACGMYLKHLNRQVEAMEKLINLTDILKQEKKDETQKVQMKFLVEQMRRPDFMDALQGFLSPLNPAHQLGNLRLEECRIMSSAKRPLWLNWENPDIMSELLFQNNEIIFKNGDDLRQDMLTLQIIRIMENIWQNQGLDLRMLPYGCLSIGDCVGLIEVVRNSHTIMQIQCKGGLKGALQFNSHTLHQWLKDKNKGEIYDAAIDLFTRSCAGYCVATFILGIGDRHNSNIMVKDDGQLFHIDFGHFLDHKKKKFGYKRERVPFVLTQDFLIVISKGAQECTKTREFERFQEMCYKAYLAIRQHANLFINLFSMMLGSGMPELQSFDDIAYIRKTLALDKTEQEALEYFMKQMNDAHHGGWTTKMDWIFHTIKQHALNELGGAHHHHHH

Row | Compound | IC50 (PI3Kα) [µM] | IC50 (PI3Kδ) [µM] | PI3Kdelta (selectivity) (PI3Kδ) | IC50 (PI3Kβ) [µM] | PI3Kbeta (selectivity) (PI3Kβ) | IC50 (PI3Kγ) [µM] | PI3Kgamma (selectivity) (PI3Kγ)
1 | Cc1nc(NC(=O)N2CC[C@@H](CN3CCOCC3)[C@H]2C(N)=O)sc1-c1ccnc(C2(C)CC2)c1 [Example 7, (2S,3S)-3-Morpholin-4-ylmethyl-pyrrolidine-1,2-dicarboxylic acid 2-amide 1-({4-methyl-5-[2-(1-methyl-cyclopropyl)-pyridin-4-yl]-thiazol-2-yl}-amide)] | 0.038 | 0.19 | (5) | 5.15 | (136) |  | 
2 | Cc1nc(NC(=O)N2CC[C@@H](CN(C)C)[C@H]2C(N)=O)sc1-c1ccnc(C(C)(C)C(F)(F)F)c1 [Example 15, (2S,3S)-3-Dimethylaminomethyl-pyrrolidine-1,2-dicarboxylic acid 2-amide 1-({4-methyl-5-[2-(2,2,2-trifluoro-1,1-dimethyl-ethyl)-pyridin-4-yl]-thiazol-2-yl}-amide)] | 0.017 | 0.093 | (5) | 3.27 | (192) |  | 
3 | Cc1nc(NC(=O)N2CCC(C)(C)C2C(N)=O)sc1-c1ccnc(C(C)(C)C(F)(F)F)c1 (racemic) [Example 4, (rac)-3,3-Dimethyl-pyrrolidine-1,2-dicarboxylic acid 2-amide 1-({4-methyl-5-[2-(2,2,2-trifluoro-1,1-dimethyl-ethyl)-pyridin-4-yl]-thiazol-2-yl}-amide)] | 0.091 | 0.437 | (4) | 6.96 | (76) | 1.68 | (18)
4 | Cc1nc(NC(=O)N2CC[C@@H](C)[C@H]2C(N)=O)sc1-c1ccnc(C(C)(C)C(F)(F)F)c1 [Example 2, (2S,3R)-3-Methyl-pyrrolidine-1,2-dicarboxylic acid 2-amide 1-({4-methyl-5-[2-(2,2,2-trifluoro-1,1-dimethyl-ethyl)-pyridin-4-yl]-thiazol-2-yl}-amide)] | 0.027 | 0.059 | (2) | 1.2 | (44) | 0.104 | (3)
5 | [2H]C([2H])([2H])C([2H])([2H])N(c1cncc(-c2sc(NC(=O)N3CC[C@@H](C)[C@H]3C(N)=O)nc2C)n1)C([2H])([2H])C([2H])([2H])[2H] [Example 13, (2S,3R)-3-Methyl-pyrrolidine-1,2-dicarboxylic acid 2-amide 1-{[5-(6-d10-diethylamino-pyrazin-2-yl)-4-methyl-thiazol-2-yl]-amide}] | 0.004 | 0.049 | (12) | 0.938 | (234) | 0.418 | (104)
6 | Cc1nc(NC(=O)N2CC[C@@H](C)[C@H]2C(N)=O)sc1-c1ccnc(C2(C)CC2)c1 [Example 1, (2S,3R)-3-Methyl-pyrrolidine-1,2-dicarboxylic acid 2-amide 1-({4-methyl-5-[2-(1-methyl-cyclopropyl)-pyridin-4-yl]-thiazol-2-yl}-amide)] | 0.007 | 0.168 | (24) | 2.6 | (370) | 0.175 | (25)

More lines, in order of falling IC50 (PI3Kα), values ahead:

Row | IC50 (PI3Kα) [µM] | IC50 (PI3Kδ) [µM] | PI3Kdelta (selectivity) (PI3Kδ) | IC50 (PI3Kβ) [µM] | PI3Kbeta (selectivity) (PI3Kβ) | IC50 (PI3Kγ) [µM] | PI3Kgamma (selectivity) (PI3Kγ) | Compound
7 | 0.053 | 0.8 | (15) | > 9.1 | (>171) | 1.08 | (20) | Cc1nc(NC(=O)N2CCC(C)(C)C2C(N)=O)sc1-c1ccnc(C2(C)CC2)c1 (racemic) [Example 3, (rac)-3,3-Dimethyl-pyrrolidine-1,2-dicarboxylic acid 2-amide 1-({4-methyl-5-[2-(1-methyl-cyclopropyl)-pyridin-4-yl]-thiazol-2-yl}-amide)]
8 | 0.018 | 0.24 | (13) | 3.22 | (178) |  |  | CC(=O)NC[C@@H]1CCN(C(=O)Nc2nc(C)c(-c3ccnc(C4(C)CC4)c3)s2)[C@@H]1C(N)=O [Example 5, (2S,3S)-3-(Acetylamino-methyl)pyrrolidine-1,2-dicarboxylic acid 2-amide 1-({4-methyl-5-[2-(1-methyl-cyclopropyl)-pyridin-4-yl]-thiazol-2-yl}-amide)]
9 | 0.013 | 0.684 | (52) | 0.99 | (76) |  |  | CC(=O)NC[C@@H]1CCN(C(=O)Nc2nc(C)c(-c3ccnc(C(C)(C)C(F)(F)F)c3)s2)[C@@H]1C(N)=O [Example 6, (2S,3S)-3-(Acetylamino-methyl)-pyrrolidine-1,2-dicarboxylic acid 2-amide 1-({4-methyl-5-[2-(2,2,2-trifluoro-1,1-dimethyl-ethyl)-pyridin-4-yl]-thiazol-2-yl}-amide)]
10 | 0.012 | 0.11 | (9) | 1.47 | (122) |  |  | COC[C@@H]1CCN(C(=O)Nc2nc(C)c(-c3ccnc(C(C)(C)C(F)(F)F)c3)s2)[C@@H]1C(N)=O [Example 14, (2S,3R)-3-Methoxymethyl-pyrrolidine-1,2-dicarboxylic acid 2-amide 1-({4-methyl-5-[2-(2,2,2-trifluoro-1,1-dimethyl-ethyl)-pyridin-4-yl]-thiazol-2-yl}-amide)]
11 | 0.01 | 0.586 | (58) | > 9.1 | (910) | 0.2 | (20) | Cc1nc(NC(=O)N2CC[C@@H](C)[C@H]2C(N)=O)sc1-c1ccnc(C(C)(C)F)n1 [Example 9, (2S,3R)-3-Methyl-pyrrolidine-1,2-dicarboxylic acid 2-amide 1-({5-[2-(1-fluoro-1-methyl-ethyl)-pyrimidin-4-yl]-4-methyl-thiazol-2-yl}-amide)]
12 | 0.009 | 0.113 | (13) | 2.17 | (241) |  |  | Cc1nc(NC(=O)N2CC[C@@H](C)[C@H]2C(N)=O)sc1-c1ccnc(C(C)(C)C)c1 [Example 16, (2S,3R)-3-Methyl-pyrrolidine-1,2-dicarboxylic acid 2-amide 1-{[5-(2-tert-butyl-pyridin-4-yl)-4-methyl-thiazol-2-yl]-amide}]
13 | 0.006 | 0.049 | (8) | 2.29 | (380) |  |  | Cc1nc(NC(=O)N2CC[C@@H](CN3CCOCC3)[C@H]2C(N)=O)sc1-c1ccnc(C(C)(C)C(F)(F)F)c1 [Example 8, (2S,3S)-3-Morpholin-4-ylmethyl-pyrrolidine-1,2-dicarboxylic acid 2-amide 1-({4-methyl-5-[2-(2,2,2-trifluoro-1,1-dimethyl-ethyl)-pyridin-4-yl]-thiazol-2-yl}-amide)]
14 | 0.0045 | 0.033 | (7) | 1.59 | (353) | 0.076 | (16) | [2H]C([2H])([2H])C(c1nccc(-c2sc(NC(=O)N3CC[C@@H](C)[C@H]3C(N)=O)nc2C)n1)(C([2H])([2H])[2H])C([2H])([2H])[2H] [Example 12, (2S,3R)-3-Methylpyrrolidine-1,2-dicarboxylic acid 2-amide 1-{[5-(2-d9-tert-butyl-pyrimidin-4-yl)-4-methyl-thiazol-2-yl]-amide}]
